This is an account of results in patent US20070128217A1 (priority 2003, published 2007).

The test system of assay [1] is control sera (pooled serum of ten healthy LUMC hospital workers; commercial negative donor pooled serum from the Dutch bloodbank). In kind it is binding, human. Also noted: Binding of Control serum LUMC to linear peptides / Binding of Control serum Blood-bank to linear peptides / Binding of Control serum LUMC to looped peptides / Binding of Control Serum Blood-Bank to Looped peptides / Binding of Control serum LUMC to linear peptides of the protein M of SARS-CoV Urbani / Binding of Control serum Blood-bank to linear peptides of the protein M of SARS-CoV Urbani / Binding of Control serum LUMC to looped peptides of the protein M of SARS-CoV Urbani / Binding of Control Serum Blood-Bank to Looped peptides of the protein M of SARS-CoV Urbani: unit not given here.

Assay [2] relates to rabbit serum obtained by immunizing a rabbit with the SARS-CoV strain Frankfurt 1. Format: binding. Also noted: Binding of a rabbit serum to linear peptides / Binding of a rabbit serum to looped peptides / Rabbit serum linear peptides / Rabbit serum looped peptides / Binding of a rabbit serum to linear peptides of protein N of SARS-CoV Urbani (Rabbit serum linear peptides) / Binding of a rabbit serum to looped/cyclic peptides of protein N of SARS-CoV Urbani (Rabbit serum looped peptides): unit not given here.

Assay [3] concerns antibodies in sera from SARS patients (sera 1a, 1b, 2, 6, 37, 62, London, SARS-yellow, SARS-green). In kind it is binding, human. Details: Binding of serum 6 to linear peptides of protein X1 of SARS-CoV Urbani / Binding of serum 37 to linear peptides of protein X1 of SARS-CoV Urbani / Binding of serum 6 to looped/cyclic peptide (PEPSCAN-ELISA) / Binding of serum 37 to looped/cyclic peptide (PEPSCAN-ELISA) / Binding of serum 37 to looped/cyclic peptides of protein X1 of SARS-CoV Urbani / Binding of serum 6 to linear peptides of protein X2 / Binding of serum 37 to linear peptides of protein X2 / Binding of serum 37 to looped/cyclic peptides of protein X2 of SARS-CoV Urbani / Binding of serum 6 to linear peptides of protein M of SARS-CoV Urbani / Binding of serum 37 to linear peptides of protein M of SARS-CoV Urbani / Binding of serum 6 to looped/cyclic peptides of protein M of SARS-CoV Urbani / Binding of serum 37 to looped/cyclic peptides of protein M of SARS-CoV Urbani / Binding of serum 6 to linear peptides of protein X3 of SARS-CoV Urbani / Binding of serum 37 to linear peptides of protein X3 of SARS-CoV Urbani / Binding of serum 37 to looped/cyclic peptides of protein X3 of SARS-CoV Urbani / Binding of serum 6 to linear peptides of protein X4 of SARS-CoV Urbani / Binding of serum 37 to linear peptides of protein X4 of SARS-CoV Urbani / Binding of serum 37 to looped/cyclic peptides of protein X4 of SARS-CoV Urbani / Binding of serum 6 to linear peptides of protein X5 of SARS-CoV Urbani / Binding of serum 37 to linear peptides of protein X5 of SARS-CoV Urbani / Binding of serum 37 to looped/cyclic peptides of protein X5 of SARS-CoV Urbani / Binding of serum 6 to linear peptides of protein N of SARS-CoV Urbani / Binding of serum 37 to linear peptides of protein N of SARS-CoV Urbani / Binding of serum 6 to linear peptide (PEPSCAN-ELISA) / Binding of serum 1a to looped/cyclic peptides of protein N of SARS-CoV Urbani / Binding of serum 1b to looped/cyclic peptides of protein N of SARS-CoV Urbani / Binding of serum 2 to looped/cyclic peptides of protein N of SARS-CoV Urbani / Binding of serum 6 to looped/cyclic peptides of protein N of SARS-CoV Urbani / Binding of serum 37 to looped/cyclic peptides of protein N of SARS-CoV Urbani / Binding of serum 62 to looped/cyclic peptides of protein N of SARS-CoV Urbani / Binding of serum London to looped/cyclic peptides of protein N of SARS-CoV Urbani / Binding of serum SARS-green to looped/cyclic peptides of protein N of SARS-CoV Urbani: unit not given here.

Take ELLIQQWIQFMMSRR: in assay [1], the “Binding of Control Serum Blood-Bank to Looped peptides” value is 0.6, the “Binding of Control serum Blood-bank to linear peptides” value is given as 0.5, the “Binding of Control serum LUMC to linear peptides” value is reported as 0.4 and the “Binding of Control serum LUMC to looped peptides” value is given as 0.5. In assay [2], the “Binding of a rabbit serum to linear peptides” value was determined as 0.4 and the “Binding of a rabbit serum to looped peptides” value was found to be 0.4. Further, in assay [3], the “Binding of serum 1a to linear peptides of protein X2” value is 0.7, the “Binding of serum 1a to looped/cyclic peptides of protein X2 of SARS-CoV Urbani” value stood at 0.5, the “Binding of serum 1b to linear peptides of protein X2” value is 0.5 and the “Binding of serum 1b to looped/cyclic peptides of protein X2 of SARS-CoV Urbani” value is 0.4. In assay [3], the “Binding of serum 2 to linear peptides of protein X2” value worked out at 0.4, the “Binding of serum 2 to looped/cyclic peptides of protein X2 of SARS-CoV Urbani” value was 0.5, the “Binding of serum 6 to linear peptides of protein X2” value turned out to be 0.3 and the “Binding of serum 6 to looped/cyclic peptides of protein X2 of SARS-CoV Urbani” value is 0.3. Moreover, in assay [3], the “Binding of serum 37 to linear peptides of protein X2” value came to 0.6, the “Binding of serum 37 to looped/cyclic peptides of protein X2 of SARS-CoV Urbani” value came to 0.5, the “Binding of serum 62 to linear peptides of protein X2” value is on record as 0.6 and the “Binding of serum 62 to looped/cyclic peptides of protein X2 of SARS-CoV Urbani” value was 0.6. For the same sequence, in assay [3], the “Binding of serum London to linear peptides of protein X2” value is recorded as 0.4, the “Binding of serum London to looped/cyclic peptides of protein X2 of SARS-CoV Urbani” value is given as 0.2, the “Binding of serum SARS-green to linear peptides of protein X2” value is reported as 0.6 and the “Binding of serum SARS-green to looped/cyclic peptides of protein X2 of SARS-CoV Urbani” value was 0.4. In assay [3], the “Binding of serum SARS-yellow to linear peptides of protein X2” value amounted to 0.8 and the “Binding of serum SARS-yellow to looped/cyclic peptides of protein X2 of SARS-CoV Urbani” value is 0.4.
Take ELVIGAVIIRGHLRM: in assay [1], the “Binding of Control Serum Blood-Bank to Looped peptides of the protein M of SARS-CoV Urbani” value was found to be 0.7, the “Binding of Control serum Blood-bank to linear peptides of the protein M of SARS-CoV Urbani” value is 0.7, the “Binding of Control serum LUMC to linear peptides of the protein M of SARS-CoV Urbani” value was determined as 0.5 and the “Binding of Control serum LUMC to looped peptides of the protein M of SARS-CoV Urbani” value is on record as 0.6. In assay [2], the “Rabbit serum linear peptides” value is recorded as 0.8 and the “Rabbit serum looped peptides” value came to 0.1. Also, in assay [3], the “Binding of serum 1a to linear peptides of protein M of SARS-CoV Urbani” value is 0.8, the “Binding of serum 1a to looped/cyclic peptides of protein M of SARS-CoV Urbani” value came to 0.8, the “Binding of serum 1b to linear peptides of protein M of SARS-CoV Urbani” value came to 0.6 and the “Binding of serum 1b to looped/cyclic peptides of protein M of SARS-CoV Urbani” value turned out to be 0.4. For the same sequence, in assay [3], the “Binding of serum 2 to linear peptides of protein M of SARS-CoV Urbani” value came out at 0.7, the “Binding of serum 2 to looped/cyclic peptides of protein M of SARS-CoV Urbani” value was determined as 0.7, the “Binding of serum 6 to linear peptides of protein M of SARS-CoV Urbani” value came to 0.3 and the “Binding of serum 6 to looped/cyclic peptides of protein M of SARS-CoV Urbani” value came to 0.7. In assay [3], the “Binding of serum 37 to linear peptides of protein M of SARS-CoV Urbani” value is given as 0.8, the “Binding of serum 37 to looped/cyclic peptides of protein M of SARS-CoV Urbani” value is given as 0.7, the “Binding of serum 62 to linear peptides of protein M of SARS-CoV Urbani” value came to 0.8 and the “Binding of serum 62 to looped/cyclic peptides of protein M of SARS-CoV Urbani” value is given as 0.6. Besides, in assay [3], the “Binding of serum London to linear peptides of protein M of SARS-CoV Urbani” value was 0.3, the “Binding of serum London to looped/cyclic peptides of protein M of SARS-CoV Urbani” value was 0.2, the “Binding of serum SARS-green to linear peptides of protein M of SARS-CoV Urbani” value is 0.3 and the “Binding of serum SARS-green to looped/cyclic peptides of protein M of SARS-CoV Urbani” value turned out to be 0.3. Further, in assay [3], the “Binding of serum SARS-yellow to linear peptides of protein M of SARS-CoV Urbani” value amounted to 0.1 and the “Binding of serum SARS-yellow to looped/cyclic peptides of protein M of SARS-CoV Urbani” value worked out at 0.6.
